For one assay, the system named is Hsp90 and GRP94. Kind of assay: Purinome captured on ATP Sepharose interrogated with compounds in parallel; eluted proteins identified by MS. Type of assay: binding, pig. To be noted: FIG. 3; SDS-PAGE silver staining, mass spectrometry. The source says:
The purinome was captured from pig mammary gland extract as described (Hughes et al., Bioorg Med Chem. 2012, 20(10):3298-3305) on gamma phosphate linked ATP Sepharose. Following extensive washing with physiological buffers to remove non-specifically associated proteins, the resin was divided equally and interrogated with the indicated compounds in parallel as described (Hughes et al 2012). All eluted proteins were characterized by SDS-PAGE and silver staining, and then identified by mass spectrometry. […] Key: GRP94, glucose regulated protein 94; Hsp90, heat shock protein 90; LAPT, lapatinimb; Hsp90 STD, purified Hsp90; 17-AAG, derivatized form of geldanamycin, BLK, vehicle control consisting of buffer containing 10% DMSO used to solubilize all compounds included in the test.

Assay [1] deals with Hsp90. The assay is described as follows: Affinity resin capture of Hsp90 from pig mammary gland extract (SDS-PAGE silver stain, MS sequencing). Particulars: 1 mM compound 5 pre-incubated in the tissue extract. Type of assay: binding. Here is the method:
Several media were prepared as described in Example 7, using compounds 6, 7, 8 and 9. These resins were termed A, B, C and D respectively. To prepare the resin in each case, the appropriate compound was added at 1-10 μmol/gram of resin in minimal methanol.
The ability of each resin to selectively capture Hsp90 from pig mammary gland extract, a tissue shown to be high in ATP binding proteins including native forms of Hsp90, GRP94 and TRAP1, was evaluated. The resin was incubated in the protein solution then washed with a high salt buffer. The bound proteins were removed via an SDS boil procedure, separated by SDS-PAGE electrophoresis, located by silver staining and identified using mass spectrometry (MS) sequencing. […] In the case of resin E (Example 7), bound proteins were eluted with 25 mM sodium dithionite in phosphate-buffered saline.

A further assay deals with MCF7 cells. Kind of assay: Compound 10 fluorescence in MCF7 cells with anti-Hsp90 antibody or competing compound 5. The assay is classed as cell-based. To be noted: FIG. 6C. As for the experimental part:
In FIG. 6B, the compound was added in the presence of an antibody to Hsp90. […] DAPI (blue) highlights the nucleus of the cell. In FIG. 6 the green staining from compound 10 fluorescence appears white, while blue from the DAPI-stained nuclei appears gray.

For the next assay, the system named is BT474 cells. Kind of assay: Competition of compound 10 signal by compound 5 in permeabilized cells (plate reader fluorescence). The assay is classed as cell-based. To be noted: compound 5 0-10 μM; escin; 30 minutes; Ex488/Em522 nm; FIG. 9. Here is the method: BT474 cells were incubated with varying doses of compound 5 (0 μM, 0.01 μM, […], 1 μM and 10 μM) in the presence of a fixed concentration of compound 10 ([…]) and a cell permeabilizing agent (escin) for 30 minutes. The cells were then washed to remove the free probe and cell extracts prepared from the homogenized cells. The amount of drug uptake was then measured by fluorescence (Ex488/Em522 nm) in a micro plate fluorescence reader.

A further assay has as its target T1, GRP94 (Sus scrofa, UniProt Q29092).
T1 construct: The ATP resin was charged with the pig mammary gland extract; from tissue; host or cells: pig mammary gland extract captured on gamma phosphate linked ATP Sepharose
Kind of assay: Elution of pig mammary gland proteins from gamma phosphate linked ATP Sepharose with increasing amounts of compound. Type of assay: binding. Particulars: FIG. 2. The source says: (§1) The ATP resin was charged with the pig mammary gland extract and aliquots were distributed into individual wells.

For assay [2], the system named is Hsp90. The assay is described as above. Type of assay: binding. To be noted: FIG. 2.
Excerpt: as §1

T1 sequence (Q29092 22-804): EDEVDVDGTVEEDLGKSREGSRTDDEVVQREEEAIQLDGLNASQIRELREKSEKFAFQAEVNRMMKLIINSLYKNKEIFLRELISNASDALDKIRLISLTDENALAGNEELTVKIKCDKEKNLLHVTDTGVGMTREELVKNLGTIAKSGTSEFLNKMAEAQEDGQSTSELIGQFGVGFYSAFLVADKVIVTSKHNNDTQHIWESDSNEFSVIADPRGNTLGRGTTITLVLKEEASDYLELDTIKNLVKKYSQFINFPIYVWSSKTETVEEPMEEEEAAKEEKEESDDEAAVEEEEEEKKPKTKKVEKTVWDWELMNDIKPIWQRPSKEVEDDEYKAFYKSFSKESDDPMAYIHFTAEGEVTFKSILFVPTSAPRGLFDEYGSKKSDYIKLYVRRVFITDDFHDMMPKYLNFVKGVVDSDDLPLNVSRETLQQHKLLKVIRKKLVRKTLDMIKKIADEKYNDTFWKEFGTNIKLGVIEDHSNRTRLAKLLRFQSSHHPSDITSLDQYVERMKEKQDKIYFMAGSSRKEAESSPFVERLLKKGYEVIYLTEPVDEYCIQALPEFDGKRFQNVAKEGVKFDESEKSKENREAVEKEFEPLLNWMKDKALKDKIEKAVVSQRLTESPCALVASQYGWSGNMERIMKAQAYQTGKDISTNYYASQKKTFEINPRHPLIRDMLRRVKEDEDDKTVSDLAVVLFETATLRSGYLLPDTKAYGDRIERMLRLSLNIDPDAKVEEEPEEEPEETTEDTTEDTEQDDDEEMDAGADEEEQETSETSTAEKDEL

As for “2-((19-di(ferrocenemethylamino)-4,7,10,13,16-pentaoxanonadecyl)amino)-4-(3,6,6-trimethyl-4-oxo-4,5,6,7-tetrahydro-1H-indazol-1-yl)benzamide [Compound 27]”, in the assay on Hsp90 and GRP94, the “proteins recognized (eluted from ATP Sepharose)” value (“proteins recognized” below) was “only recognize Hsp90”.
Take “17-alkylamino-17-desmethoxygeldanamycin [Compound 17-AAG, reference compound]”: the “proteins recognized” value with Hsp90 and GRP94 was “specificity for both Hsp90 and GRP94”.
Take `Cc1nn(-c2ccc(C(N)=O)c(N[C@H]3CC[C@H](O)CC3)c2)c2c1C(=O)CC(C)(C)C2` [Compound 5, 2-(((1r,4r)-4-Hydroxycyclohexyl)amino)-4-(3,6,6-trimethyl-4-oxo-4,5,6,7-tetrahydro-1H-indazol-1-yl)benzamide, reference compound]: the “competition of protein binding to the resins” value in the assay with Hsp90 [1] is listed as “clean exclusion of Hsp90 but not other proteins”. The “proteins recognized” value in the assay with Hsp90 and GRP94 is “specificity for both Hsp90 and GRP94”. The “competition of compound 10 fluorescence signal” value in the assay with MCF7 cells is “competes away the fluorescence signal”. Also, in the assay with BT474 cells, the “competition of the signal from compound 10” value is given as “effectively competed”.
Consider `Cc1nn(-c2ccc(C(N)=O)c(NCCCOCCOCCOCCOCCOCCCN)c2)c2c1C(=O)CC(C)(C)C2` [Compound 8, 2-((19-Amino-4,7,10,13,16-pentaoxanonadecyl)amino)-4-(3,6,6-trimethyl-4-oxo-4,5,6,7-tetrahydro-1H-indazol-1-yl)benzamide], for which the “elution of GRP94 from ATP resin” value at GRP94 is on record as “essentially no elution”. Besides, in the assay on Hsp90 and GRP94, the “proteins recognized” value is “only recognize Hsp90”.
Take `Cc1nn(-c2ccc(C(N)=O)c(NCCCOCCOCCOCCOCCOCCCNc3ccc([N+](=O)[O-])c4nonc34)c2)c2c1C(=O)CC(C)(C)C2` [Compound 11, 2-((19-((7-nitrobenzo[c][1,2,5]oxadiazol-4-yl)amino)-4,7,10,13,16-pentaoxanonadecyl)amino)-4-(3,6,6-trimethyl-4-oxo-4,5,6,7-tetrahydro-1H-indazol-1-yl)benzamide]: in the assay with Hsp90 and GRP94, the “proteins recognized” value is “only recognize Hsp90”.
Same read-out and setting: to `Cc1nn(-c2ccc(C(N)=O)c(NCCCOCCOCCOCCOCCO)c2)c2c1C(=O)CC(C)(C)C2` [Compound 19, 2-((1-hydroxy-3,6,9,12-tetraoxapentadecan-15-yl)amino)-4-(3,6,6-trimethyl-4-oxo-4,5,6,7-tetrahydro-1H-indazol-1-yl)benzamide] belongs “only recognize Hsp90”.
The same measure, in the same setting: to `Cc1nn(-c2ccc(C(N)=O)c(NCCCOCCOCCOCCOCCOCCCNc3cc(-n4nc(C)c5c4CC(C)(C)CC5=O)ccc3C(N)=O)c2)c2c1C(=O)CC(C)(C)C2` [Compound 20, 2,2′-(4,7,10,13,16-pentaoxanonadecane-1,19-diylbis(azanediyl))bis(4-(3,6,6-trimethyl-4-oxo-4,5,6,7-tetrahydro-1H-indazol-1-yl)benzamide)] belongs “only recognize Hsp90”.
The same measure, in the same setting: under `Cc1nn(-c2ccc(C(N)=O)c(N[C@H]3CC[C@H](N)CC3)c2)c2c1C(=O)CC(C)(C)C2` [Compound 28, 2-(((1r,4r)-4-aminocyclohexyl)amino)-4-(3,6,6-trimethyl-4-oxo-4,5,6,7-tetrahydro-1H-indazol-1-yl)benzamide] stands “only recognize Hsp90”; under `Cc1nn(-c2ccc(C(N)=O)c(N[C@H]3CC[C@H]([N+](C)(C)C)CC3)c2)c2c1C(=O)CC(C)(C)C2` [Compound 29, (1r,4r)-4-((2-carbamoyl-5-(3,6,6-trimethyl-4-oxo-4,5,6,7-tetrahydro-1H-indazol-1-yl)phenyl)amino)-N,N,N-trimethylcyclohexanaminium], “only recognize Hsp90”.
As for `CC(C)NCCCn1c(Sc2cc3c(cc2I)OCO3)nc2c(N)ncnc21` [PU-H71], the “elution of GRP94 from ATP resin” value at GRP94 is “strong potency”. In addition, the “elution of Hsp90 from ATP resin” value in the assay with Hsp90 [2] is reported as “strong potency”. For the same molecule, in the assay on Hsp90 and GRP94, the “proteins recognized” value is “specificity for both Hsp90 and GRP94”.
`CC1(C)CC(=O)c2c(C(F)(F)F)nn(-c3ccc(C(N)=O)c(N[C@H]4CC[C@H](O)CC4)c3)c2C1` [SNX-2112]: the “elution of GRP94 from ATP resin” value at GRP94 was “weaker affinity”.

Values taken from patent US10927115B2, “Substituted heterocycles for targeting Hsp90” (Duke University, priority 2012, dated 2021).
